The results in this text go back to US6855536B2, “Materials and methods for the enhancement of effective root nodulation in legumes” (priority 2000, dated 2005).

Structures are written as SMILES. “Also recorded” adds a separate entry of the source.

The test system of one assay is nolA-lacZ fusion. The experiment in a line: nolA-lacZ (nolA1,2,3-lacZ) fusion β-galactosidase assay in B. japonicum. In kind it is cell-based, Bradyrhizobium japonicum. Conditions: for Induction of nolA expression (in words): B. japonicum harboring nolA-lacZ fusion. As to the method:
(§1) Bacterial Stains, plasmids and culture conditions. For routine bacterial growth, B. japonicum cells were maintained on RDY medium (So, J. -S. et al. [1987] Mol. Gen. Genet. 207:15-23). Bacteria were grown in minimal medium (Bergensen, F. J. [1961] Aust. J. Biol. Sci. 14:349-360) for β-galactosidase activity. As required, antibiotics were used at the following concentrations, Cm (30 μg/ml), Sm (100 μg/ml), Sp (100 μg/ml), Tc (100 μg/ml). The B. japonicum strains used in this study were Bj110-42, BJAlac12, BJAlac23, BJAlac13 and BJ110-1248-1, ZB977, SL101 and Bj110-573. These strains harbored the following translational fusions; BJ110-1248-1 (nodD2-lacZ, plasmid pRJ1248, Dockendorff et al. [1994] Mol. Plant-Microbe Interact. 7:596-602), ZB977 (nodY-lacZ, plasmid pZB32, Banfalvi et al. [1988] Mol. Gen. Genet. 214:420-424), SL101 (npt-lacZ, Yuen, J. P.-Y and G. Stacey [1996] Mol. Plant-Microbe Interact. 9:424-428), and Bj110-573 (nodC-lacZ, chromosomally integrated fusion, Dockendorff et al. [1994] Mol. Plant-Microbe Interact 7:596-602). Strains Bj110-42, BJAlac23, BJAlac12, BJAlac13 harbored nolA-lacZ translational fusions encoded on plasmids pBGALac1, pNMAlac23, pNMAlac13, pNMAlac12 respectively (Garcia et al. [1996] Mol. Plant-Microbe Interact. 9:625-635; Loh et al. [1999] J. Bacteriol. 181:1544-1554). Plasmid pNMAlac23 contained mutations to ATG2 and ATG3 of nolA and allowed the specific expression of NolA1-lacZ. In contrast, plasmids pNMAlac13 (mutations to ATG1 and ATG3) and pNMAlac12 (mutation to ATG1 and ATG3, Loh et al. [1999] J. Bacteriol. 181:1544-1554) only expressed NolA2-lacZ and NolA3-lacZ, respectively.
Typically, B. japonicum cells are found in high population density in commercial inoculants. To determine if the bacterial nolA inducer was present in commercial inoculant, three soybean inoculants from two commercially available sources were extracted with butanol, and these extracts analyzed for their ability to induce the nolA-lacZ fusions.
As shown in Tables 2-3 and FIG. 11C, an inducer of nolA-lacZ and nodD2-lacZ expression was detected in conditioned medium from B. japonicum cultures grown to a high population density. […] The nolA inducer present in the conditioned medium was lost after dialysis using a membrane with a cutoff at 3 kDa (Fisher Scientific, Pittsburgh, Pa.).

In a further assay the test system is nodY-lacZ. Briefly: nodY-lacZ fusion induction by genistein in B. japonicum. In kind it is cell-based, Bradyrhizobium japonicum. Conditions: for Effect on nodY-lacZ expression: 0.025 μM genistein for five hours, with or without 500 μM FeCl3. As to the method:
as §1
This view is supported experimentally by the following two results.
The levels of nod gene expression were also found to be affected by IND-1.

In a further assay the test system is CDF production. The experiment in a line: CDF production in B. japonicum cultures grown with iron. In kind it is cell-based, Bradyrhizobium japonicum. To be noted: Fe^3+ added to B. japonicum cultures.
Another assay has as its system NolA1-lacZ. Briefly: NolA1-lacZ fusion β-galactosidase assay in B. japonicum. In kind it is cell-based, Bradyrhizobium japonicum. Conditions: NolA3-lacZ fusions compared. As to the method: as §1, with “Strains Bj110-42, BJAlac23, BJAlac12, BJAlac13 harbored nolA-lacZ translational fusions encoded on plasmids pBGALac1, pNMAlac23, pNMAlac13, pNMAlac12 respectively (Garcia et al. [1996] Mol. Plant-Microbe Interact. 9:625-635; Loh et al. [1999] J. Bacteriol. 181:1544-1554). Plasmid pNMAlac23 contained mutations to ATG2 and ATG3 of nolA and allowed the specific expression of NolA1-lacZ. In contrast, plasmids pNMAlac13 (mutations to ATG1 and ATG3) and pNMAlac12 (mutation to ATG1 and ATG3, Loh et al. [1999] J. Bacteriol. 181:1544-1554) only expressed NolA2-lacZ and NolA3-lacZ, respectively.” left out
As shown in Tables 2-3 and FIG. 11C, an inducer of nolA-lacZ and nodD2-lacZ expression was detected in conditioned medium from B. japonicum cultures grown to a high population density. […]

Assay [1] relates to nodulation of soybean by B. japonicum. Briefly: Soybean nodulation plant test in growth pouches. In kind it is in vivo, Glycine max. Conditions: for Effect on nodulation of soybean (in words): B. japonicum cells pretreated 1 h, 10^7 cells per root, nodules counted 21 days post-inoculation. As to the method:
The significance of nod gene repression by both IND-1 and the quorum factor was also investigated in plant tests. Seeds of Glycine maxcv Essex were surface sterilized, placed in sterile growth pouches (Mega International, MN) and cultivated as described by Nieuwkoop et al. (Nieuwkoop et al. [1987] J. Bacteriol. 169:2631-2638). Each seedling was inoculated with 10^7 B. japonicum cells. Prior to inoculation of the roots, B. japonicum cells were incubated for 1 h with concentrated, conditioned medium that had been sterilized by filtration through a […] filter (Millipore, Bedford, Mass.). The conditioned medium was used at a final concentration of 10 μl per 1 ml of culture. At the time of inoculation, the location of the root tip was marked on the outside of the plastic growth pouch. Plants were watered with nitrogen free nutrient solution (Wacek and Brill [1976] Crop Sci. 15:519-523). At 21 days post-inoculation, the number of nodules on each root both above and below the root tip mark was recorded.

The subject of assay [2] is nodule occupancy by the NwsB mutant. Briefly: Nodule occupancy competition assay, NwsB mutant versus wild-type. In kind it is in vivo, Glycine max. To be noted: 25 μM BEHP; NwsB mutant and USDA110 at different ratios; 21 days post inoculation. As to the method:
Different ratios of B. japonicum USDA110 and B. japonicum NwsB mutant were innoculated on soybean plants grown in growth pouches. At the time of innoculation, the root tip (RT) mark was noted on the outside of the pouches. Nodules were extracted 21 days post innoculation and the extracts were plated on RDY plates. Single colonies were picked and tested for streptomycin resistance (a marker for the NwsB mutant). (A) is above RT at time of innoculation; (B) below RT at time of innoculation.
We have generated, by recombinant means, mutations in the nwsB gene. The NwsB mutant appears to be defective in the recognition of the quorum signal and we have performed plant tests with the mutant in competition assays with the wild-type bacteria. In these assays, the effect of IND-1 (BEHP) on the ability of the NwsB mutant to nodulate soybean in the presence of wild-type bacteria (at different cell ratios) was examined. […] Nodule occupancy was scored both above (treated area) and below (new root growth) the root tip mark at the time of inoculation. […] These studies were conducted using 25 μM levels of BEHP.

The subject of another assay is nodC-lacZ. Briefly: nodC-lacZ fusion induction by genistein in B. japonicum Bj110-573. In kind it is cell-based, Bradyrhizobium japonicum. To be noted: 0.025 μM genistein, 5 hours; cells harvested at high population densities (A600=1.62 or 3.22). As to the method: as §1, with “Plasmid pNMAlac23 contained mutations to ATG2 and ATG3 of nolA and allowed the specific expression of NolA1-lacZ. In contrast, plasmids pNMAlac13 (mutations to ATG1 and ATG3) and pNMAlac12 (mutation to ATG1 and ATG3, Loh et al. [1999] J. Bacteriol. 181:1544-1554) only expressed NolA2-lacZ and NolA3-lacZ, respectively.” left out

The mark [3] stands for this setting: listed as phthalic acid bis-(2-ethyl-hexyl) ester.

For `[Cl][Fe]([Cl])[Cl]` [Fe^3+, FeCl3], the “Effect on nolA expression at high culture densities” value in the assay with nolA-lacZ fusion (increasing concentrations of FeCl3 for five hours) was “significantly reduced the expression of nolA expression”. In addition, the “Effect on nodY-lacZ expression” value in the assay with nodY-lacZ is on record as “corresponding increase in nodY-lacZ expression”; with nodY-lacZ (listed as FeCl3), “increase in the expression of a nodY-lacZ fusion protein”. Besides, in the assay on CDF production, the “Effect on CDF production” value is listed as “inhibit CDF production”.
Consider `CCCCC(CC)COC(=O)c1ccccc1C(=O)OCC(CC)CCCC` (stereo not shown) [IND-1, phthalic acid bis-(2-ethyl-hexyl) ester], for which the “Induction of nolA expression (in words)” value in the assay with nolA-lacZ fusion was “active on B. japonicum nolA-lacZ fusions; also recorded: capable of inducing nolA”; in the assay on nolA-lacZ fusion (setting [3]) it was “potent inducer of nolA; also recorded: strong inducer of NolA expression”. In the assay with NolA1-lacZ, the “Which NolA form is affected (NolA1, NolA2, NolA3)” value is recorded as “affect only NolA1 expression”. Further, the “Effect on nod gene (nodY-lacZ) induction by genistein (in words)” value in the assay with nodY-lacZ (B. japonicum at low population density, IND-1 in USDA110, USDA76, USDA31) is reported as “reduced nodY-lacZ induction by genistein”. Further, the “Effect on nodulation of soybean (in words)” value in assay [1] was “reduced nodulation efficiency”; in assay [1] (setting [3]), “inhibits nodulation”. In addition, the “Nodule phenotype in the presence of BEHP” value in assay [1] (UV treated USDA61 A2 73 cells inoculated onto soybean roots) was “delayed nodule phenotype”. In assay [2], the “Percentage of nodules occupied by the NwsB mutant” value is on record as “increase the percentage of nodules that were occupied by the NwsB mutant”.
Turning to `O=c1c(-c2ccc(O)cc2)coc2cc(O)ccc12` [daidzein, reference compound], the “Induction of nolA expression (in words)” value in the assay on nolA-lacZ fusion is reported as “failed to induced nolA expression”.
On to `O=c1c(-c2ccc(O)cc2)coc2cc(O)cc(O)c12` [genistein, reference compound], for which the “Induction of nolA expression (in words)” value with nolA-lacZ fusion is “failed to induced nolA expression”. The “Induction of nodY-lacZ, β-galactosidase activity” value in the assay on nodY-lacZ (0.05 μM genistein for 5 h, with or without CM (A600 = 1.0), CPRG substrate, mean of two ± SD) was determined as 366 ± 11 U. Also, the “nodC-lacZ induction by genistein” value in the assay with nodC-lacZ is “Little or no nodC induction”.
